Key:
[1] = biological target: JAK1 (Homo sapiens, UniProt P23458); experiment: JAK kinase inhibition assay (EZ Reader, peptide substrate phosphorylation) - JAK1; format: biochemical; details: JAK1 kinase 20 nM; 8 concentration points, max 10 μM
Excerpt: (§1) Assay for Identifying Inhibitory Effects of Compounds on JAK Kinases
(§2) Janus kinases (JAK), including JAK1, JAK2, JAK3 and Tyk2, transduce a cytokine-mediated signal through a JAK-STAT pathway. The kinases are 120-140 kDa in size and have 7 determined homology regions: JH1 to JH7. JH1 is an important region for enzymatic activity and has typical characteristics of tyrosine kinases. Phosphorylation of tyrosine leads to a change in the conformation of JAK protein, thereby promoting binding of substrate. The JAK-STAT system includes three main parts: receptors penetrating a cell membrane, Janus kinases binding to the receptors, and signal transducers and activators of transcription (STAT) for transmitting signals to a nucleus and DNA. When cytokines bind to receptors, JAK phosphorylates the receptors and attracts STAT proteins. The STAT proteins are also phosphorylated and combined with one another to form dimers. The dimers enter the nucleus and bind to DNA, thereby leading to gene transcription.
(§3) EZ Reader from PerkinElmer can be used to detect the phosphorylation of polypeptide substrates catalyzed by kinases. The device is based on microfluidic techniques, and can directly detect fluorescently labeled substrates and products. The separation step is achieved by controlling the pressure and electric field strength in the microfluidic chip. In kinase assays, a product conversion ratio is usually controlled to be 20-30%. A biological test is used to identify inhibitory effects of compounds on JAKs.
(§4) Compound powder was dissolved in DMSO, sealed and stored in a freezer under −20° C. The in-house compound Ref1 was used as a positive control for JAK1, JAK2 and Tyk2 tests, and Ref2 was used as a positive control for JAK3 tests.
(§5) S2.8. Assay buffer: 20 mM HEPES buffer, pH 7.4, 10 mM magnesium chloride, 0.01% bovine serum albumin BSA, 0.0005% Tween-20 and 1 mM dithiothreitol solution.
(§6) S2.9. Stop buffer: 180 mM HEPES buffer, 20 mM ethylenediaminetetraacetic acid and 0.2% coating reagent 3.
(§7) S2.10. Separation buffer: 100 mM HEPES buffer, 10 mM ethylenediaminetetraacetic acid, 0.0005% Tween 20, 0.1% coating reagent 3 and 1% dimethyl sulfoxide.
(§8) The compound was dissolved in dimethyl sulfoxide and diluted to 10 mM concentration, a certain volume of solution was taken and diluted to 0.6 mM concentration, 10 μL of the 0.6 mM dilution was added to a 384-well microplate, and then was diluted 3-fold with a total of 8 concentration points.
(§9) Positive control (HPE1): Ref1, final concentration: 10 μM […]
(§10) Negative control (ZPE): DMSO, final content: 1.6%
(§11) Compounds: maximum final concentration: 10 μM; 3-fold dilution, 8 concentration points and 2 duplicates.
(§12) S4.1. 250 nL of the compound was added to each well of the assay microplate by using ECHO, and centrifuged at 1000 rpm for 1 minute.
(§13) S4.2. 5 μL of the assay buffer was added and agitated for a few seconds to fully dissolve the compound.
(§14) S4.3. 5 μL of 3× substrate solution and 5 μL of 3× kinase solution were added and centrifuged at 800 rpm for 1 minute.
(§15) S4.4. Final concentrations of JAK1, JAK2, JAK3 and Tyk2 kinases in the reaction system were 20 nM, 1 nM, 1 nM and 1 nM respectively.
(§16) S4.5. Incubation at room temperature, where kinases had time differences, and different batches of kinases had time differences.
(§17) S4.6. When 20%-30% of the reaction completed, 15 μL of stop buffer was added to stop the reaction, and centrifuged at 1000 rpm for 2 minutes.
(§18) S4.7. The microplates were placed on EZ Reader for reading.
(§19) S4.8. Readings on EZ Reader were calculated by using a peak height, where product conversion ratio (%)=product/(product+substrate)*100.
(§20) 5. Data Processing: IC50 calculation
(§21) A graphing software Xlfit was used to form a concentration curve of the test compound, and an IC50 value was calculated.
(§22) “A” means “≥10 μM”; “B” means “≥1 μM and <10 μM”; “C” means “≥0.1 μM and <1 μM”; and “D” means “<0.1 μM”.

[2] = biological target: Tyk2 (Homo sapiens, UniProt P29597); experiment: JAK kinase inhibition assay (EZ Reader, peptide substrate phosphorylation) - Tyk2; format: biochemical; details: Tyk2 kinase 1 nM; 8 concentration points, max 10 μM
Chain of Tyk2 (P29597 whole entry): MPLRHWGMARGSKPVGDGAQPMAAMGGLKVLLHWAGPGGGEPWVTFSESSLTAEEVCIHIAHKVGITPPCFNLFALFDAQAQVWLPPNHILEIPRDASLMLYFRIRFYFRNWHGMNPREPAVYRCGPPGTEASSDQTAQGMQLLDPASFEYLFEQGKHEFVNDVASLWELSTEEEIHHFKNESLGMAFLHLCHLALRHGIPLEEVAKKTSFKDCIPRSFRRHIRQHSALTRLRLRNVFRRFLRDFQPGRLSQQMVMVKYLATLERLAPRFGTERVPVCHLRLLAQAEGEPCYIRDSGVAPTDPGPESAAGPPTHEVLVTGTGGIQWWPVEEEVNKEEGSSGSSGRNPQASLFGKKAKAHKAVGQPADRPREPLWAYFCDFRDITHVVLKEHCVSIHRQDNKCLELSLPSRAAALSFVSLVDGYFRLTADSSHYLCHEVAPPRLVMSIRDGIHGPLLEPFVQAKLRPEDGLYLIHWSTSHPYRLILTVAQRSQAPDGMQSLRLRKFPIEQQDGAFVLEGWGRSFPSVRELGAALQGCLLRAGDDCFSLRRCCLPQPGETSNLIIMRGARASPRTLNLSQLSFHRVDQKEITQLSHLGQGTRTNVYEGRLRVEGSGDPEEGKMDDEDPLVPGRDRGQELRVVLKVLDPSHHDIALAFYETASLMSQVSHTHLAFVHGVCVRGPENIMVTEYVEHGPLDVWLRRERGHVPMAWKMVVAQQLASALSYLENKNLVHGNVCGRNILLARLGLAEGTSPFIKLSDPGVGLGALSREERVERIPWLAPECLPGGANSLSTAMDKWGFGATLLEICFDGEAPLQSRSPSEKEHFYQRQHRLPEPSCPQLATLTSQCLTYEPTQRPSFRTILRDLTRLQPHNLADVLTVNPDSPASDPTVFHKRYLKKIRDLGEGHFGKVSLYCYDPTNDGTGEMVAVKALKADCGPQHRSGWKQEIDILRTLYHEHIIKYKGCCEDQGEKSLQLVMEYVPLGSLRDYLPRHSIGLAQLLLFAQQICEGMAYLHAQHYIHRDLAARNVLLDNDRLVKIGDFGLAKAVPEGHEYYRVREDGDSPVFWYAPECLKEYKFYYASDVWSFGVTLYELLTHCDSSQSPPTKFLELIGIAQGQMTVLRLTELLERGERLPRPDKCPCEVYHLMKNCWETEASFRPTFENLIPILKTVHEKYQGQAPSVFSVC
Excerpt: as §1, §2, §3, §4, §5, §6, §7, §8, §9, §10, §11, §12, §13, §14, §15, §16, §17, §18, §19, §20, §21, §22

Chain of JAK1 (P23458 whole entry): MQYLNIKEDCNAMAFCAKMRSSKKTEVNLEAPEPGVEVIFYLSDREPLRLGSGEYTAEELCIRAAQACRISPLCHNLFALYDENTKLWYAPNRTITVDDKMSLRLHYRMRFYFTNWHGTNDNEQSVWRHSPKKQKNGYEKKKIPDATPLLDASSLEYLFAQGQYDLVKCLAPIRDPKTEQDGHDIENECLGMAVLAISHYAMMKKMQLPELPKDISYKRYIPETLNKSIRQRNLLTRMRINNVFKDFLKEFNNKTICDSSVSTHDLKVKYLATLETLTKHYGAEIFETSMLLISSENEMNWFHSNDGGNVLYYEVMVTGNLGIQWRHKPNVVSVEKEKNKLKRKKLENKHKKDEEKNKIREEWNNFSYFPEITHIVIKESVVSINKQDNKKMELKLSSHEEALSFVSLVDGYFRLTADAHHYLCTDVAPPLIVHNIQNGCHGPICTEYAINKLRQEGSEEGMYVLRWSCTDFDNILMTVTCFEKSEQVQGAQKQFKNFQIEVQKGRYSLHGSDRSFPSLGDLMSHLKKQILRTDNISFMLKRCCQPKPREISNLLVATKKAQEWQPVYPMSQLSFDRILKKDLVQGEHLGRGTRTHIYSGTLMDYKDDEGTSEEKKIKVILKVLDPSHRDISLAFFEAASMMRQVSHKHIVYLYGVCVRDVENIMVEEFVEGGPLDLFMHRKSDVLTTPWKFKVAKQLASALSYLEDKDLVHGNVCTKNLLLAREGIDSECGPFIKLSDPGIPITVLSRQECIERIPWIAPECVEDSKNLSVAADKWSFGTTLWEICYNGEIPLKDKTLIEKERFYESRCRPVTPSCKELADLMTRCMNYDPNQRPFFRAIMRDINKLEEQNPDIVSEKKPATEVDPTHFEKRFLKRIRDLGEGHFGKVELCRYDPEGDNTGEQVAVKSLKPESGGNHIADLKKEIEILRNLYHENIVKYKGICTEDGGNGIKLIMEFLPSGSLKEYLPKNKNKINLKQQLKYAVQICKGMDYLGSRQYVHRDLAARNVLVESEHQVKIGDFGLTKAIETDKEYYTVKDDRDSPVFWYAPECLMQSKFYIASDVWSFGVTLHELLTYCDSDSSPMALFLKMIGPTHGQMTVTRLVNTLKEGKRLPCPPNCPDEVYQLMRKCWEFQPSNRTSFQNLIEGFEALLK

Row | Structure (SMILES) | IC50 [1] [µM] | IC50 [2] [µM]
1 | CCOCCS(=O)(=O)Nc1ccc(-c2ccnc(Nc3cnn(C)c3)n2)cn1 [TDM-180877, 2-ethyoxyl-N-(5-(2-((1-methyl-1H-pyrazol-4-yl)amino)pyrimidin-4-yl)pyridin-2-yl)ethanesulfonamide] | 0.1 to 1 | 1 to 10
2 | Cn1cc(Nc2nccc(-n3ccc4c(NC(=O)CC#N)cccc43)n2)cn1 [TDM-180881, 2-cyano-N-(1-(2-((1-methyl-1H-pyrazol-4-yl)amino)pyrimidin-4-yl)-1H-indol-4-yl)acetamide] | < 0.1 | 0.1 to 1
3 | Cn1cc(Nc2nccc(-n3ccc4c(NC(=O)CC(F)(F)F)cccc43)n2)cn1 [TDM-180882, 3,3,3-trifluoro-N-(1-(2-((1-methyl-1H-pyrazol-4-yl)amino)pyrimidin-4-yl)-1H-indol-4-yl)propanamide] | < 0.1 | 0.1 to 1
4 | Cn1cc(Nc2nccc(-c3ccc(NC(=O)C4CC4)c4[nH]ncc34)n2)cn1 [TDM-180884, N-(4-(2-((1-methyl-1H-pyrazol-4-yl)amino)pyrimidin-4-yl)-1H-indazol-7-yl)cyclopropanemethane] | 0.1 to 1 | 0.1 to 1
5 | Cn1cc(Nc2nccc(-n3ccc4c(NC(=O)C5CC5(F)F)cccc43)n2)cn1 (centres unmarked) [TDM-180885, 2,2-difluoro-N-(1-(2-((1-methyl-1H-pyrazol-4-yl)amino)pyrimidin-4-yl)-1H-indol-4-yl)cyclopropane-1-carboxamide] | < 0.1 | 0.1 to 1
6 | Cn1cc(Nc2nccc(-c3cnc(NC(=O)C4CC4(F)F)c(F)c3)n2)cn1 (centres unmarked) [TDM-180888, 2,2-difluoro-N-(3-fluoro-5-(2-((1-methyl-1H-pyrazol-4-yl)amino)pyrimidin-4-yl)pyridin-2-yl)cyclopropanecarboxamide] | 0.1 to 1 | 0.1 to 1
7 | Cn1cc(Nc2nccc(-c3cnc(NC(=O)C4CC4)c(F)c3)n2)cn1 [TDM-180891, N-(3-fluoro-5-(2-((1-methyl-1H-pyrazol-4-yl)amino)pyrimidin-4-yl)pyridin-2-yl)cyclopropanecarboxamide] | 1 to 10 | 1 to 10
8 | Cn1cc(Nc2nccc(-c3cnc(NC(=O)C4CC4(F)F)cn3)n2)cn1 (centres unmarked) [TDM-180892, 2,2-difluoro-N-(5-(2-((1-methyl-1H-pyrazol-4-yl)amino)pyrimidin-4-yl)pyrazin-2-yl)cyclopropane-1-formamide] | 0.1 to 1 | 1 to 10
9 | CCCS(=O)(=O)Nc1ccc(-c2ccnc(Nc3cnn(C)c3)n2)cc1 [TDM-180893, N-(4-(2-((1-methyl-1H-pyrazol-4-yl)amino)pyrimidin-4-yl)phenyl)propane-1-sulfonamide] | 0.1 to 1 | 0.1 to 1
10 | Cn1cc(Nc2nccc(-c3ccc(NS(=O)(=O)CCc4ccccc4)cc3)n2)cn1 [TDM-180894, N-(4-(2-((1-methyl-1H-pyrazol-4-yl)amino)pyrimidin-4-yl)phenyl)-2-phenylethane-1-sulfonamide] | 0.1 to 1 | 0.1 to 1
11 | Cn1cc(Nc2nccc(-c3ccc(NS(=O)(=O)CCCF)cc3)n2)cn1 [TDM-180896, 3-fluoro-N-(4-(2-((1-methyl-1H-pyrazol-4-yl)amino)pyrimidin-4-yl)phenyl)propane-1-sulfonamide] | 0.1 to 1 | 0.1 to 1
12 | Cn1cc(Nc2nccc(-c3ccc(NS(=O)(=O)Cc4ccccc4)nc3)n2)cn1 [TDM-180897, N-(5-(2-((1-methyl-1H-pyrazol-4-yl)amino)pyrimidin-4-yl)pyridin-2-yl)-1-phenylmethanesulfonamide] | 0.1 to 1 | 0.1 to 1
13 | Cn1cc(Nc2nccc(-c3ccc(NC(=O)CC#N)c4[nH]ncc34)n2)cn1 [TDM-180898, 2-cyano-N-(4-(2-((1-methyl-1H-pyrazol-4-yl)amino)pyrimidin-4-yl)-1H-indazole-7-yl)acetamide] | 0.1 to 1 | 0.1 to 1
14 | Cn1cc(Nc2nccc(-c3ccc(NC(=O)C4CC4(F)F)c4[nH]ncc34)n2)cn1 (centres unmarked) [TDM-180899, 2,2-difluoro-N-(4-(2-((1-methyl-1H-pyrazol-4-yl)amino)pyrimidin-4-yl)-1H-indazol-7-yl)cyclopropane-1-carboxamide] | < 0.1 | 0.1 to 1
15 | CCCS(=O)(=O)Nc1ccc(-c2ccnc(Nc3cnn(C)c3)n2)cn1 [TDM-180901, N-(5-(2-((1-methyl-1H-pyrazol-4-yl)amino)pyrimidin-4-yl)pyridin-2-yl)propane-1-sulfonamide] | 1 to 10 | ≥ 10
16 | Cn1cc(Nc2nccc(-c3ccc(NS(=O)(=O)CCCF)nc3)n2)cn1 [TDM-180903, 3-fluoro-N-(5-(2-((1-methyl-1H-pyrazol-4-yl)amino)pyrimidin-4-yl)pyridin-2-yl)propane-1-sulfonamide] | 1 to 10 | 1 to 10

Results, then the compound that gave them:

Row | IC50 [1] [µM] | IC50 [2] [µM] | Structure (SMILES)
17 | < 0.1 | 0.1 to 1 | Cn1cc(Nc2nccc(-c3cnc(NC(=O)C4CC4(F)F)nc3)n2)cn1 (centres unmarked) [TDM-180886, 2,2-difluoro-N-(2-((1-methyl-1H-pyrazol-4-yl)amino)-[4,5′-bipyrimidin]-2′-yl)cyclopropane-1-carboxamide]
18 | 0.1 to 1 | 1 to 10 | Cn1cc(Nc2nccc(-c3cnc(NC(=O)CC(F)(F)F)nc3)n2)cn1 [TDM-180887, 3,3,3-trifluoro-N-(2-((1-methyl-1H-pyrazol-4-yl)amino)-[4,5′-bipyrimidin]-2′-yl)propanamide]
19 | 0.1 to 1 | 1 to 10 | Cn1cc(Nc2nccc(-c3cnc(NC(=O)CC(F)(F)F)c(F)c3)n2)cn1 [TDM-180889, 3,3,3-trifluoro-N-(3-fluoro-S-(2-((1-methyl-1H-pyrazol-4-yl)amino)pyrimidin-4-yl)pyridin-2-yl)propanamide]
20 | 0.1 to 1 | 1 to 10 | Cn1cc(Nc2nccc(-c3cnc(NC(=O)CC#N)c(F)c3)n2)cn1 [TDM-180890, 2-cyano-N-(3-fluoro-5-(2-((1-methyl-1H-pyrazol-4-yl)amino)pyrimidin-4-yl)pyridin-2-yl)acetamide]
21 | 1 to 10 | ≥ 10 | Cn1cc(Nc2nccc(-c3ccc(NS(=O)(=O)CCC(F)(F)F)nc3)n2)cn1 [TDM-180895, 3,3,3-trifluoro-N-(5-(2-((1-methyl-1H-pyrazol-4-yl)amino)pyrimidin-4-yl)pyridin-2-yl)propane-1-sulfonamide]
22 | < 0.1 | 0.1 to 1 | Cn1cc(Nc2nccc(-c3ccc(NC(=O)CC(F)(F)F)c4[nH]ncc34)n2)cn1 [TDM-180900, 3,3,3-trifluoro-N-(4-(2-((1-methyl-1H-pyrazol-4-yl)amino)pyrimidin-4-yl)-1H-indazol-7-yl)propionamide]
23 | 1 to 10 | 1 to 10 | Cn1cc(Nc2nccc(-c3cnc(NC(=O)CC#N)nc3)n2)cn1 [TDM-180902, 2-cyano-N-(2-((1-methyl-1H-pyrazol-4-yl)amino)-[4,5′-bipyrimidin]-2′-yl)acetamide]
24 | 1 to 10 | 1 to 10 | Cn1cc(Nc2nccc(-c3cnc(NC(=O)C4CC4)nc3)n2)cn1 [TDM-180904, N-(2-((1-methyl-1H-pyrazol-4-yl)amino)-[4,5′-bipyrimidin]-2′-yl)cyclopropanecarboxamide]
25 | 0.1 to 1 | 1 to 10 | Cn1cc(Nc2nccc(-c3cnc(NC(=O)CC(F)(F)F)cn3)n2)cn1 [TDM-180905, 3,3,3-trifluoro-N-(5-(2-((1-methyl-1H-pyrazol-4-yl)amino)pyrimidin-4-yl)pyrazin-2-yl)propanamide]

Reference: US20240174648A1, “Small Molecule Compound” (Technoderma Medicines Pte Ltd, priority 2019, published 2024)
